Consider eleven compounds from ChEMBL document CHEMBL1201862, “PubChem BioAssay data set” (2004).

Test systems include T47D; Malme-3M; MDA-MB-231; OVCAR-5; SK-OV-3; HCT-116; HT-29; SK-MEL-5; 786-0; K562; SF-539; U-251; SF-268; MCF7; NCI-H226; MDA-MB-435; KM12; LOX IMVI; MDA-N; CCRF-CEM.
Common to all, as to experiment: growth of human tumour cells (NCI), 48 h

The structures appear in SMILES notation.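 Briefly, cells in 96-well plates were exposed to five compound concentrations for 48 h, and endpoints were estimated by linear interpolation. The concentration for 50% growth inhibition is given as GI50.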 Activity calls are given as the source filed them. Cut-off read from the data, not from the text of the source: active = GI50 up to about 1.1 µM and inactive = higher.

With `CC12CCC(/C(=N/c3ccc([N+](=O)[O-])cc3)C1=O)C2(C)C` (stereo not drawn), the GI50 in the assay on T47D was 16.3 µM (inactive); with Malme-3M, 13.9 µM (inactive); in the assay on MDA-MB-231 it was 18.3 µM (inactive); in the assay with OVCAR-5 it was 51.5 µM (inactive); with SK-OV-3, 28.4 µM (inactive); in the assay on HCT-116 it was 19.1 µM (inactive). Moreover, the GI50 in the assay with HT-29 was 21 µM (inactive); with SK-MEL-5 it was 26.2 µM (inactive); with 786-0, 16.8 µM (inactive); with K562, 19 µM (inactive); in the assay with SF-539 it was 18.2 µM (inactive); in the assay with U-251, 24.9 µM (inactive). For the same compound, the GI50 is 20.3 µM (inactive) with SF-268; > 100 µM (inactive) in the assay on MCF7; > 100 µM (inactive) with NCI-H226; 17.1 µM (inactive) in the assay on MDA-MB-435; 19.9 µM (inactive) in the assay with KM12; 14.7 µM (inactive) with LOX IMVI.

On to `CC(NC(=O)Cc1ccccc1)NC(=O)C(C)C(=O)Nc1ccccc1` (stereo not drawn), for which the GI50 with T47D is > 100 µM (inactive); in the assay on Malme-3M it was 16.1 µM (inactive); in the assay on MDA-MB-231, 65.6 µM (inactive); with OVCAR-5 it was > 100 µM (inactive); in the assay with SK-OV-3, 51.6 µM (inactive); in the assay on HCT-116, > 100 µM (inactive). Further, the GI50 is > 100 µM (inactive) in the assay with HT-29; > 100 µM (inactive) in the assay with SK-MEL-5; 52.2 µM (inactive) in the assay with 786-0; > 100 µM (inactive) in the assay on K562; > 100 µM (inactive) with SF-539; 43.3 µM (inactive) in the assay with U-251. Further, the GI50 in the assay with SF-268 is 36.6 µM (inactive); with MCF7 it was > 100 µM (inactive); in the assay on NCI-H226 it was 23.3 µM (inactive); in the assay on MDA-MB-435 it was > 100 µM (inactive); with KM12, > 100 µM (inactive); in the assay with MDA-N it was > 100 µM (inactive).

Take `O=C(O)/C(=C/C(=O)c1ccc(Cl)cc1)NNc1ccc([N+](=O)[O-])cc1[N+](=O)[O-]`: the GI50 in the assay with T47D was 55.5 µM (inactive); with Malme-3M, 30.5 µM (inactive); in the assay with MDA-MB-231, 36.8 µM (inactive); in the assay with OVCAR-5, 82.8 µM (inactive); with SK-OV-3, 35.6 µM (inactive); in the assay on HCT-116 it was 19.6 µM (inactive). The GI50 was 64.1 µM (inactive) in the assay with HT-29; > 100 µM (inactive) in the assay on SK-MEL-5; 27 µM (inactive) with 786-0; 36.9 µM (inactive) in the assay with K562; 35.3 µM (inactive) in the assay on SF-539; 47.9 µM (inactive) in the assay on U-251. For the same compound, the GI50 was 38.7 µM (inactive) in the assay on SF-268; 52.4 µM (inactive) in the assay with MCF7; 23.7 µM (inactive) with NCI-H226; 67.9 µM (inactive) in the assay on MDA-MB-435; 51.8 µM (inactive) in the assay with KM12; 75.3 µM (inactive) in the assay on LOX IMVI. In addition, the GI50 with CCRF-CEM is 23.6 µM (inactive).

`CNc1nc(SC)nc2c1c(N)nn2C`: the GI50 with T47D, in the assay with Malme-3M, with MDA-MB-231, with OVCAR-5, in the assay with SK-OV-3 and in the assay with HCT-116 was > 100 µM (inactive) throughout. In addition, the GI50 in the assay on HT-29, in the assay on SK-MEL-5, with 786-0, in the assay on K562, with U-251 and in the assay on SF-268 was > 100 µM (inactive) throughout. Further, the GI50 with NCI-H226, in the assay on MDA-MB-435, with KM12, with MDA-N, in the assay on LOX IMVI and in the assay on CCRF-CEM was > 100 µM (inactive) in each case.

Take `CC(C)(C)OC(=O)N(CCCN)CCCCN`: the GI50 with T47D is > 100 µM (inactive); in the assay on MDA-MB-231, 0.0673 µM (active); in the assay with OVCAR-5, > 100 µM (inactive); with SK-OV-3 it was > 100 µM (inactive); with HCT-116, > 100 µM (inactive); in the assay with HT-29 it was > 100 µM (inactive). Also, the GI50 with SK-MEL-5, with 786-0, with K562, in the assay with SF-539, in the assay on U-251 and in the assay with SF-268 was > 100 µM (inactive) in each case. Besides, the GI50 with MCF7, in the assay with NCI-H226, with MDA-MB-435, with KM12 and in the assay with CCRF-CEM was > 100 µM (inactive) throughout.

Regarding `CCOC(=O)c1ccc(Nc2nc3ccccc3nc2-c2cccs2)cc1`, the GI50 in the assay on T47D was 16.9 µM (inactive); in the assay with Malme-3M, > 100 µM (inactive); in the assay on MDA-MB-231, 18.7 µM (inactive); in the assay on OVCAR-5, > 100 µM (inactive); in the assay on HCT-116, 80.5 µM (inactive); in the assay on SK-MEL-5, 98.6 µM (inactive). Also, the GI50 in the assay with 786-0 was 50.7 µM (inactive); with K562 it was 46.8 µM (inactive); with SF-539, > 100 µM (inactive); in the assay with U-251 it was 97.9 µM (inactive); with SF-268, 93.5 µM (inactive); in the assay with MCF7 it was 34 µM (inactive). Moreover, the GI50 with NCI-H226 was > 100 µM (inactive); with MDA-MB-435, 36.9 µM (inactive); in the assay on KM12, 49.1 µM (inactive); in the assay with MDA-N it was 19 µM (inactive); in the assay with LOX IMVI it was 21.9 µM (inactive); in the assay on CCRF-CEM, 41.8 µM (inactive).

As to `CCOC(=O)c1c(N2CCN(C)CC2)[nH]c(=O)c(C(c2c(Cl)cccc2Cl)c2c(O)c(C(=O)OCC)c(N3CCN(C)CC3)[nH]c2=O)c1O`, the GI50 in the assay with T47D is 16.5 µM (inactive); in the assay on Malme-3M, 22.6 µM (inactive); in the assay with MDA-MB-231, 25.5 µM (inactive); in the assay on OVCAR-5, 43 µM (inactive); in the assay on HCT-116 it was 38.1 µM (inactive); with HT-29 it was 19.8 µM (inactive). For the same compound, the GI50 was 20.7 µM (inactive) with SK-MEL-5; 27.7 µM (inactive) in the assay with 786-0; 25.8 µM (inactive) in the assay with K562; 19.4 µM (inactive) in the assay with SF-539; 23.1 µM (inactive) with U-251; 24.2 µM (inactive) with SF-268. Besides, the GI50 with MCF7 is 29.5 µM (inactive); in the assay on NCI-H226, 28.6 µM (inactive); in the assay with MDA-MB-435, 25.8 µM (inactive); in the assay on KM12, 23.5 µM (inactive); in the assay on LOX IMVI, 34.5 µM (inactive); in the assay on CCRF-CEM it was 31 µM (inactive).

On to `CC(=O)c1nc2ccccc2n1CC(=O)c1ccc([N+](=O)[O-])cc1`, for which the GI50 in the assay with T47D is 8.18 µM (inactive); in the assay on Malme-3M, 11.6 µM (inactive); in the assay on MDA-MB-231 it was 26.1 µM (inactive); in the assay on SK-OV-3 it was 31.2 µM (inactive); in the assay with HCT-116 it was 8.2 µM (inactive); with HT-29, 15.2 µM (inactive). Moreover, the GI50 with 786-0 was 3.47 µM (inactive); with K562 it was 5.5 µM (inactive); in the assay with SF-539, 22.3 µM (inactive); with U-251 it was 4.38 µM (inactive); in the assay on SF-268, 30.8 µM (inactive); in the assay on MCF7 it was 16.7 µM (inactive). Moreover, the GI50 in the assay on NCI-H226 is 21.5 µM (inactive); in the assay on MDA-MB-435, 22 µM (inactive); in the assay on KM12 it was 5.46 µM (inactive); in the assay on LOX IMVI, 7.26 µM (inactive); in the assay on CCRF-CEM, 9.84 µM (inactive).

As to `CC(C)C1=CC23CCC4C(C)(C(=O)O)CCCC4(C)C2CC1C1C(=O)N(c2ccc(N4C(=O)C5C6CC7C8(C)CCCC(C)(C(=O)O)C8CCC7(C=C6C(C)C)C5C4=O)cc2)C(=O)C13` (stereo not drawn), the GI50 was 12.1 µM (inactive) with T47D; 14.1 µM (inactive) in the assay on Malme-3M; 4.58 µM (inactive) in the assay with MDA-MB-231; 10.3 µM (inactive) in the assay on OVCAR-5; 3.38 µM (inactive) in the assay on HCT-116; 2.45 µM (inactive) in the assay with HT-29. The GI50 is 3.44 µM (inactive) in the assay on SK-MEL-5; 13.1 µM (inactive) in the assay with 786-0; 4.35 µM (inactive) in the assay with K562; 4.3 µM (inactive) in the assay with SF-539; 4.28 µM (inactive) in the assay with U-251; 4.7 µM (inactive) in the assay with SF-268. The GI50 with MCF7 was 3.33 µM (inactive); in the assay with NCI-H226 it was 3.45 µM (inactive); in the assay on MDA-MB-435 it was 3.68 µM (inactive); with KM12, 4.17 µM (inactive); in the assay on MDA-N, 4.43 µM (inactive); with CCRF-CEM it was 3.85 µM (inactive).

As to `COc1cc2c(cc1OC)C(Cl)C(c1ccc(F)cc1)=C2Cl` (stereo not drawn), the GI50 was 10 µM (inactive) with T47D; 13.2 µM (inactive) in the assay on Malme-3M; 13.8 µM (inactive) in the assay with MDA-MB-231; 16.6 µM (inactive) in the assay on OVCAR-5; 20.1 µM (inactive) in the assay on SK-OV-3; 12.9 µM (inactive) in the assay with HCT-116. Further, the GI50 with HT-29 was 15.9 µM (inactive); with SK-MEL-5, 14.1 µM (inactive); in the assay on 786-0, 11.7 µM (inactive); in the assay with K562, 6.12 µM (inactive); in the assay with SF-539, 16.3 µM (inactive); in the assay on U-251 it was 13.1 µM (inactive). For the same compound, the GI50 with SF-268 was 15.7 µM (inactive); in the assay on MCF7, 11.6 µM (inactive); in the assay with NCI-H226, 22.7 µM (inactive); in the assay with MDA-MB-435 it was 11.4 µM (inactive); in the assay with KM12 it was 16.1 µM (inactive); in the assay with LOX IMVI, 11.6 µM (inactive). In the assay with CCRF-CEM, the GI50 is 5.77 µM (inactive).

Turning to `Fc1ccccc1-c1nn2c(C34CC5CC(CC(C5)C3)C4)nnc2s1`, the GI50 in the assay with T47D, in the assay with Malme-3M, in the assay on MDA-MB-231, in the assay on OVCAR-5, with SK-OV-3 and with HCT-116 was > 100 µM (inactive) in each case. For the same compound, the GI50 in the assay with HT-29, with SK-MEL-5, in the assay with 786-0, with K562, in the assay on SF-539 and with U-251 was > 100 µM (inactive) throughout. The GI50 in the assay on SF-268, in the assay with NCI-H226, with MDA-MB-435, in the assay with MDA-N, in the assay on LOX IMVI and in the assay on CCRF-CEM was > 100 µM (inactive) throughout.
